Reference: patent publication US8148392B2, “2-indolyl imidazo [4,5-d] phenanthroline derivatives and their use in the treatment of cancer” (Lorus Therapeutics Inc., priority 2005, dated 2012)
Read-outs that look alike come from different tables or passages of the source.

What was measured:
[1] = tested on: human colon carcinoma HT-29 cells; experiment: XTT cell proliferation assay, HT-29; type: cell-based
Method: The ability of compounds of Formula I to inhibit the proliferation of human colon carcinoma HT-29 cells was tested as follows. HT-29 colon carcinoma cells used in this example and subsequent examples were maintained as a monolayer in a growth medium; McCoy's 5A modified medium (Sigma, St. Louis, Mo.), supplemented with 2 mM L-glutamine (Gibco, Grand Island, N.Y.), 10% fetal bovine serum (FBS) (Multicell, WISENT Inc. St-Bruno, QC), antibiotic-antimycotic (Multicell), at 37° C. in a 5% CO2-humidified incubator. Cells were transferred onto 150 mm tissue culture plates and grown until sub-confluency (70-80%) prior to their use. The in vitro antiproliferative activity of compounds was evaluated by incubating the cells with varying concentrations of the compounds as shown in Table 1 for 6-7 days. The efficacy of these compounds in this cell proliferation assay was measured based in the ability of live cells to reduce the tetrazolium salt XTT to orange colored compounds of formazan (XTT cell proliferation kit II, Roche Applied Science, Montreal, QC).
The ability of compounds of Formula I to inhibit the proliferation of human colon carcinoma HT-29 cells was tested as described above in Example 13.
(§1) Cell growth inhibition IC50 (μM) by compounds of Formula I was tested on various cancer cell types by XTT cell proliferation assay. The growth inhibitory effects of the compounds of Formula I as shown below for the melanoma cell line SK-MEL-2 were reproducible by Lorus Therapeutics Inc.

[2] = tested on: KLF4; experiment: KLF4 gene expression by RT-PCR, DU-145; type: cell-based, human; conditions: DU-145, relative to vehicle control as 1
Excerpt: (§2) Gene expression levels of KLF4, induced by compounds of Formula I, were also examined on various cancer cell types by RT-PCR. Fold changes in KLF4 in compound-treated cells were expressed relative to KLF4 expression in vehicle control-treated cells of respective cell type as “1”. […] Additionally, xenografts of MDA-MB-435 implanted into mammary fat pads of female SCID mice have shown immunohistochemical staining consistent with melanocytic origin (Ellison G, Klinowska T, Westwood R F, Docter E, French T, Fox J C. (2002) Mol Pathol. 55(5): 294-299). The breast cancer cell line MDA-MB-435 may be expected to function differently than the other breast cancer cell lines.

[3] = tested on: KLF4; experiment: KLF4 gene expression by RT-PCR, PC-3; type: cell-based, human; conditions: PC-3, relative to vehicle control as 1
Excerpt: as §2

[4] = tested on: MDA-MB-435 breast cancer cells; experiment: XTT cell proliferation assay, MDA-MB-435; type: cell-based, human; conditions: read-out: IC50 (cell growth inhibition)
Method: as §1

[5] = tested on: HCT-116 colon cancer cells; experiment: XTT cell proliferation assay, HCT-116; type: cell-based, human; conditions: read-out: IC50 (cell growth inhibition)
Method: as §1

[6] = tested on: KLF4; experiment: KLF4 gene expression by RT-PCR, H-460; type: cell-based, human; conditions: H-460, relative to vehicle control as 1
Excerpt: as §2
Expressions of KLF2, 4 and 6 genes in H-460 cells, treated with vehicle control or 2.5 μM compound 3 or compound 7, were measured by RT-PCR. Gene expression was presented relative to respective gene expression in vehicle control-treated group as “1”.

[7] = tested on: H-460 lung cancer cells; experiment: XTT cell proliferation assay, H-460; type: cell-based, human; conditions: read-out: IC50 (cell growth inhibition)
Method: as §1

[8] = tested on: MDA-MB-231 breast cancer cells; experiment: XTT cell proliferation assay, MDA-MB-231; type: cell-based, human; conditions: read-out: IC50 (cell growth inhibition)
Method: as §1

[9] = tested on: KLF4; experiment: KLF4 gene expression by RT-PCR, HT-29; type: cell-based, human; conditions: HT-29, relative to vehicle control as 1
Method: To determine whether compounds of Formula I can chelate zinc in cells, the effect of compound 3 on the expression level of a zinc-regulated gene, metallothionein 1A (MT1A), in human colon carcinoma HT-29 cells, was determined. HT-29 cells, 1×10^6 cells in 10 mL volume of the growth medium were seeded in 100 mm dishes and incubated overnight at 37° C. The medium was removed and replaced with the growth medium containing 35 μM ZnCl2, 1 μM or 4 μM TPEN (NNNN-tetrakis(2-pyridyl-methyl)ethylenediamine), or 1 μM or 4 μM compound 3, or 0.1% DMSO vehicle control. After incubation for 16 hours, the cells were detached by trypsinization, collected by centrifugation and washed once with PBS. Total RNA was extracted by using TRIZOL (Invitrogen, Life Technologies, Carlsbad, Calif.), following manufacturer's instruction, and the level of MT1A mRNA was measured by real time PCR using the comparative CT method as follows. First strand cDNA was synthesized from 200 ng total RNA in Biometra Tpersonal Thermal Cycler (Abgene, UK), using pd(N)6 random hexamer (Amersham Biosciences, Piscataway, N.J.) and SuperScript™ II Reverse Transcriptase kit (Invitrogen) by following manufacturer's protocol. Real-time PCR was performed in ABI Prism 7000 Sequence Detection System (Applied Biosystems Inc., ABI, Foster City, Calif.), using 5 μL of cDNA synthesized by above-mentioned procedure and respective TaqMan® Gene Expression Assays (ABI) by following ABI TaqMan® Universal PCR master mix protocol.
The ability of compounds of Formula I to modulate the mRNA level of a transition metal-regulated tumour suppressor gene was determined in vitro as follows. Compound 3 was tested to determine its ability to increase the expression of zinc-regulated tumour suppressor KLF4 mRNA in colon carcinoma HT-29 cells. […] HT-29 cells were incubated for 16 hours with DMSO as a vehicle control, 35 μM ZnCl2, 1 μM or 4 μM of compound 3, or 1 μM or 4 μM TPEN for 16 hours and mRNA was extracted from the cells as described in Example 19. The expression of KLF4 mRNA was analyzed by real-time polymerase chain reaction using the comparative CT method also as described in Example 19. Compound 3 induced the expression of KLF4 mRNA (approximately 8-fold) in HT-29 cells compared with HT-29 cells treated with vehicle alone (See FIG. 8).
as §2
The change in gene expression of KLF4 upon zinc depletion following compound 3 treatment was determined by RT-PCR as follows. HT-29 cells were treated with 1 μM compound 3 for the indicated time (FIG. 39A) or HT-29 cells were treated with 1 μM compound 3, 35 μM ZnCl2 or compund 3 and ZnCl2 together for 16 hr (FIG. 39B). Total RNA was extracted and gene expression level was determined by RT-PCR.
Fold change in KLF4 gene expression was presented relative to KLF4 expression in non-specific siRNA-transfected cells treated with vehicle control.

[10] = tested on: PC-3 prostate cancer cells; experiment: XTT cell proliferation assay, PC-3; type: cell-based, human; conditions: read-out: IC50 (cell growth inhibition)
Method: as §1

[11] = tested on: KLF4; experiment: KLF4 gene expression by RT-PCR, MDA-MB-231; type: cell-based, human; conditions: MDA-MB-231, relative to vehicle control as 1
Excerpt: as §2

[12] = tested on: DU-145 prostate cancer cells; experiment: XTT cell proliferation assay, DU-145; type: cell-based, human; conditions: read-out: IC50 (cell growth inhibition)
Method: as §1

[13] = tested on: KLF4; experiment: KLF4 gene expression by RT-PCR, HCT-116; type: cell-based, human; conditions: HCT-116, relative to vehicle control as 1
Excerpt: as §2

[14] = tested on: SK-MEL-2 melanoma cells; experiment: XTT cell proliferation assay, SK-MEL-2; type: cell-based, human; conditions: read-out: IC50 (cell growth inhibition)
Method: as §1

[15] = tested on: KLF4; experiment: KLF4 gene expression by RT-PCR, MDA-MB-435; type: cell-based, human; conditions: MDA-MB-435, relative to vehicle control as 1
Excerpt: as §2

[16] = tested on: KLF4; experiment: KLF4 gene expression by RT-PCR, CCRF-CEM; type: cell-based, human; conditions: relative to vehicle control as 1
Excerpt: as §2

[17] = tested on: CCRF-CEM leukemia cells; experiment: XTT cell proliferation assay, CCRF-CEM; type: cell-based, human; conditions: read-out: IC50 (cell growth inhibition)
Method: as §1

[18] = tested on: KLF4; experiment: KLF4 gene expression by RT-PCR, SK-MEL-2; type: cell-based, human; conditions: SK-MEL-2, relative to vehicle control as 1
Excerpt: as §2

[19] = tested on: MOLT-4 leukemia cells; experiment: XTT cell proliferation assay, MOLT-4; type: cell-based, human; conditions: read-out: IC50 (cell growth inhibition)
Method: as §1

[20] = tested on: KLF4; experiment: KLF4 gene expression by RT-PCR, MOLT-4; type: cell-based, human; conditions: MOLT-4, relative to vehicle control as 1
Excerpt: as §2

CC(C)(C)c1ccc2[nH]c(C(C)(C)C)c(-c3nc4c5cccnc5c5ncccc5c4[nH]3)c2c1 [Compound 63]
IC50 ([1]; HT-29, XTT, as Example 13, Table 7): 0.2 µg/mL
IC50 ([1]; HT-29 colon, Table 8, read-out: IC50 (cell growth inhibition)): 200 nM
KLF4 (gene fold increase) [2]: 12.95 fold
KLF4 (gene fold increase) [3]: 1.34 fold
IC50 [4]: 500 nM
IC50 [5]: 300 nM
KLF4 (gene fold increase) [6]: 1.55 fold
IC50 [7]: 400 nM
IC50 [8]: 3700 nM
KLF4 (gene fold increase) [9]: 5.98 fold
IC50 [10]: 320 nM
KLF4 (gene fold increase) [11]: 1.77 fold
IC50 [12]: 400 nM
KLF4 (gene fold increase) [13]: 2.82 fold
IC50 [14]: 170 nM
KLF4 (gene fold increase) [15]: 7.67 fold
KLF4 (gene fold increase) [16]: 76.37 fold
IC50 [17]: 300 nM
KLF4 (gene fold increase) [18]: 5.46 fold
IC50 [19]: 200 nM
KLF4 (gene fold increase) [20]: 223.63 fold
